The target of one data set is ASK1/MAP3K5 (Homo sapiens (Human), UniProt Q99683). Nature of the data set: Enzyme activity: ASK1 kinase 33P-ATP filter-binding assay with MBP substrate. The data set is classed as biochemical. As to the method: Experimental Example 1: Enzyme Activity
Primary reaction buffer solution: 20 mM Hepes (pH 7.5), 10 mM MgCl2, 1 mM EGTA, 0.02% Brij35, 0.02 mg/ml BSA, 0.1 mM Na3VO4, 2 mM DTT, 1% DMSO
Treatment of the Compound:
The tested compounds were formulated into a 10 mM stock solution in DMSO, diluted in 3-fold gradient for a total of 10 concentrations, and placed in a 384-well plate (Cyclic Olefin Copolymer LDV Echo®).
Kinase Name: ASK1/MAP3K5 (Invitrogen, Carlsbad, Calif.)
Type: Recombinant Human Full Length Protein, GST-tagged
Final reaction concentration of the enzyme: 20 nM
Substrate: Myelin basic protein, MBP (Active Motif, Carlsbad, Calif.)
Final reaction concentration of the substrate: 20 μM
1. The substrate was dissolved in a freshly prepared primary reaction buffer solution,
2. The desired coenzyme factor was added to the above substrate solution,
3. The kinase was added to the substrate solution and mix gently,
4. The solution tested compound in DMSO was added to the kinase reaction solution and incubated at room temperature for 20 minutes.
5. The reaction was initiated by adding ^33P-ATP (specific activity 10 μCi/μL) to the reaction solution.
6. Incubated at room temperature for 2 hours.
7. A small portion of the reactants were placed onto the P-81 ion exchange filter paper.
8. The filter paper was washed three times with 0.75% phosphate buffer to wash away unbound phosphate, and then dried.
9. The radioactivity remaining on the filter paper was determined,
10. The data for the kinase activity was expressed as the ratio of the kinase activity remaining in the test sample to the kinase activity in the vehicle (DMSO).
11. IC50 values and curve fitting were collected by Prism (GraphPad software).

A short description of data set [1]: Pharmacokinetic characteristics study in mice (plasma, LC-MS/MS). The data set is classed as in vivo. The settings on record: C57BL/6 male mice. The procedure: Experimental Example 2: Pharmacokinetic Characteristics Study
C57BL/6 male mice were used in this study. The drug concentration in the plasma of mice subjected to intravenous or oral administration of the test compound at different time points were quantitatively determine by LC/MS/MS method, respectively, in order to evaluate the pharmacokinetic characteristics of the tested drugs in mice.
A clear solution of the test compound was injected into C57BL/6 mice via the tail vein (overnight fasting, 7-10 weeks old), and the test compound was intragastrically administered to C57BL/6 mice (overnight fasting, 7-10 weeks old). 30 μL of the blood was collected from the jugular vein or the tail vein of the animals 0.0833, 0.25, 0.5, 1, 2, 4, 6, 8 and 24 hours after administration, and placed in the anticoagulant tube containing EDTA-K2, followed by centrifugation at 4° C. for 15 minutes to collect the plasma. The plasma concentration was determined by LC-MS/MS. The pharmacokinetic parameters were calculated by the non-compartment model linear logarithmic trapezoidal method using WinNonlin™ Version 6.3 (Pharsight, Mountain View, Calif.) pharmacokinetic software.

Where [2] appears, read: ASK1 enzyme activity, class symbols, read-out: IC50 value.
Where [3] appears, read: recombinant human full length GST-tagged ASK1 20 nM, MBP 20 μM, 33P-ATP, 2 hours room temperature, read-out: IC50.

Where two headings read alike, the source gives them in different places. A value given as a limit tells only on which side of the number the result lay.

What is called IC50 is the concentration that gives 50% inhibition.

Sequence of ASK1/MAP3K5 (Q99683 whole entry): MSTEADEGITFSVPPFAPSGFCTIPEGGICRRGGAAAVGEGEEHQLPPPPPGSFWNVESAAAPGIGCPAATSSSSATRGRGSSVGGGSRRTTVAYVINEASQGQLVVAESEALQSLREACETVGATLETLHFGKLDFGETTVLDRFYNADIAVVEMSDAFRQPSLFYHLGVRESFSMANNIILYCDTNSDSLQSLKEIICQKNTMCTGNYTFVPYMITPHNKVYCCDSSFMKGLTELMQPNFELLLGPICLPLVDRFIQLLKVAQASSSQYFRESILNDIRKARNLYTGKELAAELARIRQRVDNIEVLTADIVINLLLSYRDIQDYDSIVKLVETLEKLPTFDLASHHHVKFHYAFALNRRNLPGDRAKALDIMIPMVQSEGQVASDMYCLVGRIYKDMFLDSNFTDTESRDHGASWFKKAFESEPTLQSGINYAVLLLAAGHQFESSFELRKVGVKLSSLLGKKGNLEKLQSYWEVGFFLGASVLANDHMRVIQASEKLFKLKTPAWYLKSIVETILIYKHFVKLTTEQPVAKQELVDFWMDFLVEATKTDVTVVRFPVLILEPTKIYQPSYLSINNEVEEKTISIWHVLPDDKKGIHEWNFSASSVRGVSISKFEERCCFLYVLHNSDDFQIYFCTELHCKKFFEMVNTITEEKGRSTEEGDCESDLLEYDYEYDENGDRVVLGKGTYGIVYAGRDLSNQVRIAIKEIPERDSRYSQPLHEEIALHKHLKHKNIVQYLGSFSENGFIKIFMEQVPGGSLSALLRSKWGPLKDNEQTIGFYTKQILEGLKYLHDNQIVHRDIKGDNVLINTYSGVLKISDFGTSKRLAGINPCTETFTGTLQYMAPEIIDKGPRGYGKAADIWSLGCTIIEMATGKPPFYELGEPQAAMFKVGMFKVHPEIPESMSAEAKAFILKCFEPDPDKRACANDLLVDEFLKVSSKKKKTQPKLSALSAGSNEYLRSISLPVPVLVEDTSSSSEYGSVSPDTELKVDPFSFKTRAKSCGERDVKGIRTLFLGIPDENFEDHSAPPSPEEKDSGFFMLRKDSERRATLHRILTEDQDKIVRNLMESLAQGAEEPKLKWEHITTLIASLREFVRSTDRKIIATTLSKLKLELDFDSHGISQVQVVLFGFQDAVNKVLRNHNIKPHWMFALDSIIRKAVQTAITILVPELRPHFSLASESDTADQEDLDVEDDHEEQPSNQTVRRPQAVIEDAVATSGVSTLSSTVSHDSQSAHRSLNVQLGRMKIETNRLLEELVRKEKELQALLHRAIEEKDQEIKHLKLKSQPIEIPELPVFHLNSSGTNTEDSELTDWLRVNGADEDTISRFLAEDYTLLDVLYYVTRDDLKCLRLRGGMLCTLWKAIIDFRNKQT

Regarding `Cc1cc(F)c(C(=O)Nc2cccc(-c3nnc4n3CCC4)n2)cc1-n1cnc(C2CC2)c1` [WX001], the half-maximal inhibitory concentration (IC50) at ASK1/MAP3K5 (setting [2]) is not above 100 nM; at ASK1/MAP3K5 (setting [3]) it was 1.82 nM.
For the compound `Cc1cc(F)c(C(=O)Nc2cccc(-c3nnc4n3CCCC4)n2)cc1-n1cnc(C2CC2)c1` [WX002], the “Exposure” value in data set [1] (intravenous or oral (intragastric) administration) was 408.566 µM·h. Also, the bioavailability in data set [1] (mouse, intragastric vs intravenous administration) came to 156%. Besides, the half-maximal inhibitory concentration (IC50) was not above 100 nM on ASK1/MAP3K5 (setting [2]) and 5.6 nM on ASK1/MAP3K5 (setting [3]).
In the case of `Cc1cc(F)c(C(=O)Nc2cccc(-c3nnc4n3CCCC4)n2)cc1-n1cc(C2CC2)nn1` [WX003], the IC50 was more than 100 nM at ASK1/MAP3K5 (setting [2]) and 943 nM at ASK1/MAP3K5 (setting [3]).
Take `Cc1cc(F)c(C(=O)Nc2cccc(-c3nnc4n3CCCC4)n2)cc1-n1nnc(C2CC2)n1` [WX004]: the values for the concentration for half-maximal inhibition (IC50) on ASK1/MAP3K5 (setting [2]) and on ASK1/MAP3K5 (setting [3]) were more than 100 nM and more than 1000 nM, respectively.
On to `Cc1cc(F)c(C(=O)Nc2cccc(-c3nnc4n3CCCC4)n2)cc1-n1cnc(C2CC2)n1` [WX005], for which the concentration for half-maximal inhibition (IC50) on ASK1/MAP3K5 (setting [2]) is not above 100 nM; on ASK1/MAP3K5 (setting [3]) it was 35.3 nM.
`O=C(Nc1cccc(-c2nnc3n2CCCC3)n1)c1cc(-n2cnc(C3CC3)c2)c(-c2cccnc2)cc1F` [WX006]: at ASK1/MAP3K5 (setting [3]), the half-inhibitory concentration (IC50) came to 19.2 nM.
On to `COCCOc1cc(F)c(C(=O)Nc2cccc(-c3nnc4n3CCCC4)n2)cc1-n1cnc(C2CC2)c1` [WX007], for which, on ASK1/MAP3K5 (setting [3]), the concentration for half-maximal inhibition (IC50) came to 16.6 nM.
In the case of `O=C(Nc1cccc(-c2nnc3n2CCCC3)n1)c1cc(-n2cnc(C3CC3)c2)c(O)cc1F` [WX008], the IC50 on ASK1/MAP3K5 (setting [3]) turned out to be 5.44 nM.
On to `CC1(COc2cc(F)c(C(=O)Nc3cccc(-c4nnc5n4CCCC5)n3)cc2-n2cnc(C3CC3)c2)COC1` [WX010], for which the IC50 at ASK1/MAP3K5 (setting [3]) was found to be 7.2 nM.
`O=C(Nc1cccc(-c2nnc3n2CCCC3)n1)c1cc(-n2cnc(C3CC3)c2)c(OCC2COC2)cc1F` [WX011]: the half-maximal inhibitory concentration (IC50) at ASK1/MAP3K5 (setting [3]) stood at 7.61 nM.
The same measure, in the same setting: the figure for `O=C(Nc1cccc(-c2nnc3n2CCCC3)n1)c1cc(-n2cnc(C3CC3)c2)c(OCCF)cc1F` [WX012] is 7.04 nM.
On to `O=C(Nc1cccc(-c2nnc3n2CCCC3)n1)c1cc(-n2cnc(C3CC3)c2)c(OCCCF)cc1F` [WX013], for which the half-inhibitory concentration (IC50) at ASK1/MAP3K5 (setting [3]) came to 7.93 nM.
For the compound `CN(C)c1cc(F)c(C(=O)Nc2cccc(-c3nnc4n3CCCC4)n2)cc1-n1cnc(C2CC2)c1` [WX014], at ASK1/MAP3K5 (setting [3]), the IC50 came out at 10.7 nM.
With `O=C(Nc1cccc(-c2nnc3n2CCCC3)n1)c1cc(-n2cnc(C3CC3)c2)c(N2CCOCC2)cc1F` [WX015], at ASK1/MAP3K5 (setting [3]), the 50% inhibitory concentration (IC50) came to 10.1 nM.
On to `Cc1cc(F)c(C(=O)Nc2cccc(-c3nnc4n3CCCC4O)n2)cc1-n1cnc(C2CC2)c1` (stereo not shown) [WX016], for which the IC50 on ASK1/MAP3K5 (setting [3]) is 4.12 nM.

The record behind these values is patent US11040968B2, “Pyridine derivative as ASK1 inhibitor and preparation method and use thereof” (FUJIAN COSUNTER PHARMACEUTICAL CO., LTD., priority 2017, dated 2021).
